The subject of this experiment is CEM cells HIV-1 protection, formazan growth assay. Briefly: NCI AIDS Antiviral Assay. The settings on record: for IC50: measured here: growth of uninfected CEM cells. The procedure, abridged: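 Protection of CEM cells against HIV-1 measured as cell growth via soluble formazan read-out, with five concentrations tested on both infected and uninfected cells; failure to protect may reflect toxicity.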

The text below walks through data of PubChem BioAssay AID179 (DTP/NCI, 2004).

As usually defined, the EC50 is the concentration at which the effect is half-maximal. Broadly, the IC50 is the concentration that inhibits the measured activity by half. Low readings indicate greater potency, high ones weaker potency.

Active and inactive are the calls of the source.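 How the source made its calls: active means compounds giving half or more protection of infected cells from virus-caused growth loss, again on retest; inactive means the rest.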

For the compound `NC(N)=NS(=O)(=O)c1ccc(Nc2c3ccccc3nc3c(C(=O)Nc4ccc(S(N)(=O)=O)cc4)ccc(Cl)c23)cc1`, the EC50 is above 41.7 µM and the IC50 was above 41.7 µM.
As to `O=CCOCc1cc2c(cc1Br)OCO2`, the EC50 was above 200 µM and the IC50 was determined as 5.25 µM.
As for `COC[C@@]12CCC(OC)C34[C@@H]5C[C@@]6(O)C(OC(=O)c7ccccc7)[C@@H]5[C@@]5(O[C@@H]5[C@@H]6OC)[C@@H](C(OC)[C@@H]31)[C@@H]4N(C)C2` (stereo partly drawn), the result was inactive.
Regarding `COc1ccc(-c2ccccc2)cc1S`, the EC50 was above 200 µM and the IC50 was above 200 µM.
With `O=C(O)c1ccc2c(c1C(=O)O)C(=O)c1ccccc1C2=O`, the EC50 is above 200 µM and the IC50 is above 200 µM.
With `COC1C(O)C(C)OC(OC2C(Oc3cccc4c(O)c5c(=O)oc6ccc(C)c7c(=O)oc(c34)c5c67)OC(C)C3O[C@H](c4ccccc4)OC32)C1O` (stereo partly drawn), the EC50 is above 7.24 µM and the IC50 is 0.0912 µM.
On the same counts, the results for `Cc1ccc2nc(CN3CCCC(O)C3)cc(=O)n2c1` (stereo not drawn) are above 200 µM and above 200 µM.
In the case of `NCCCCN(CCCN)Cc1ccccc1`, the result was inactive.
Regarding `O=C(Nc1ccccc1)N1CCN(C(=O)Nc2ccccc2)C1=S`, the EC50 is 195 µM and the IC50 is above 200 µM.
Take `O=[N+]([O-])c1c(C=Nc2ccccc2)oc(-c2ccc3c(c2)OCO3)c1-c1ccc2c(c1)OCO2`: the EC50 is above 49 µM and the IC50 was above 49 µM.
On to `Cc1cc(=O)[nH]c(NNC(C#N)c2ccco2)n1` (stereo not drawn), for which the EC50 is above 380 µM and the IC50 was above 380 µM.
As for `Fc1cc(F)c(F)c(S)c1F`, the result was active.
Consider `COc1ccc(S(=O)c2ccc(OC)cc2)cc1`, for which the EC50 was above 955 µM and the IC50 stood at 490 µM.
As for `CC(=O)OCC1OC(n2c(N)c(C#N)c(-c3ccccc3)c(C#N)c2=S)C(OC(C)=O)C(OC(C)=O)C1OC(C)=O` (stereo not drawn), the EC50 was above 200 µM and the IC50 was above 200 µM.
In the case of `c1ccc(C2=Nc3ccccc3N=C(c3ccccc3)C2)cc1`, the EC50 was above 17.8 µM and the half-maximal inhibitory concentration (IC50) is above 17.8 µM.
Take `O=c1[nH]nc2ccc(n[nH]c1=O)c1ccccc21`: the EC50 is above 200 µM and the IC50 was 7.41 µM.
`C/C1=C2\CC(OC3OCC(O)C(O)C3O)C(C)C2C/C=C(/C=O)[C@H]2C[C@@]3(C)CCC(C(C)C)C3CC12` (stereo partly drawn): the EC50 is above 93.3 µM and the half-maximal inhibitory concentration (IC50) was above 93.3 µM.
Take `CC(C)NC(=O)OCc1nnn2c1C(OC(=O)NC(C)C)CC2` (stereo not drawn): the result was inactive.
With `CC1=[N+]([O-])C2(CCCC2)N(O)C1(C)C`, the EC50 was above 200 µM and the IC50 was above 200 µM.
For the compound `C[C@@H](c1ccccc1)N1CN(C(=O)OCc2ccccc2)C(C)(C)CC1=O`, the EC50 was above 200 µM and the 50% inhibitory concentration (IC50) came to 191 µM.
On to `Cc1ccc(S(=O)(=O)c2ccccc2)cc1`, for which the EC50 was above 155 µM and the IC50 was above 155 µM.
Take `CCOC(=O)CNC(SC)=C(C#N)C#N`: the result was inactive.
For the compound `O=[N+]([O-])c1ccc(Cl)cc1N/N=C/c1cccs1`, the EC50 is above 200 µM and the IC50 was above 100 µM.
For `O=[N+]([O-])c1ccc2ncccc2c1CCc1c([N+](=O)[O-])ccc2ncccc12`, the outcome was inactive.
For the compound `OCc1ccc2[n+](c1)CCc1c-2[nH]c2ccccc12`, the EC50 is above 77.6 µM and the IC50 was above 77.6 µM.
Regarding `CCOC(=O)/C(O)=C1\C(=O)N(C)C(=O)C1c1cccc(OC)c1` (stereo not drawn), the outcome was inactive.
For `O=C1C=CC(=O)N1n1c(Cc2ccccc2)n[nH]c1=O`, the EC50 was above 200 µM and the IC50 is above 200 µM.
As to `COc1ccc(N2C(=O)[C@H]3[C@H]4CC(C(C)(C)C)CC[C@H]4c4c(n(C)c5ccccc45)[C@H]3C2=O)cc1` (stereo partly drawn), the EC50 is above 15.1 µM and the IC50 was above 15.1 µM.
For `COC(=O)c1c/c(=N\NC(=O)CC(=O)Nc2ccc(C)cc2)c2ccccc2o1`, the EC50 is above 631 µM and the IC50 was above 631 µM.
Take `COC[n+]1cc2cc(OC)c(OC)cc2c2ccc3cc(OC)c(OC)cc3c21`: the EC50 is above 31.6 µM and the IC50 is above 31.6 µM.
Consider `CSc1nc(=S)[nH]c2c1c(C)nn2-c1ccccc1`, for which the EC50 was above 200 µM and the IC50 came out at 28.8 µM.
With `Cc1ccc(S(=O)(=O)N2CCN(C=S)CC2)cc1`, the EC50 is above 91.2 µM and the IC50 was above 91.2 µM.
As to `CC(=O)C1CCC2C1(C)CC1OC13C21C=CC2(CC(O)CCC23C)C2C(=O)OC(=O)C21` (stereo not drawn), the EC50 was above 302 µM and the IC50 was above 302 µM.
As to `COc1ccc2c(ccc3c(COC(=O)NC(C)C)c(COC(=O)NC(C)C)n(C)c32)c1`, the EC50 was above 200 µM and the IC50 came out at 0.112 µM.
For `O=C(O)C1C2CCC(O2)C1C(=O)O` (stereo not drawn), the EC50 was above 1350 µM and the IC50 was above 1350 µM.
Take `CO[C@@H]1C[C@H]2[C@@H]3CC[C@H]([C@H](C)CO)[C@@]3(C)CC[C@@H]2[C@@]2(C)CC[C@H]3C[C@]312`: the EC50 was above 174 µM and the IC50 stood at 81.3 µM.
As for `Cn1c(N)nc2c3ccc(=O)[nH]c3ccc21`, the result was inactive.
Take `CCC1(O)C(=O)OCc2c1cc1n(c2=O)Cc2cc3cc(OC)c(OC)cc3nc2-1` (stereo not drawn): the EC50 was above 10 µM and the IC50 was 1.29 µM.
With `Cc1ccc(N=Nc2ccc(O)c(=O)cc2)cc1`, the EC50 is above 11.2 µM and the IC50 turned out to be 6.92 µM.
On to `O=c1[nH]nnc2cc(Cl)ccc12`, for which the EC50 was above 200 µM and the IC50 was above 200 µM.
With `COC12OC3(C4OC41)C(C(=O)O[C@H]3CO[Si](C)(C)C(C)(C)C)C2S(=O)(=O)c1ccccc1` (stereo partly drawn), the EC50 is above 200 µM and the IC50 came out at 129 µM.
As for `Cc1cc2c(cc1C)N1Cc3c(ccc(C)c3C)N(C2)C1` (tested in a mixture with another compound), the outcome was inactive.
As for `CCC1C(c2cccc(OC)c2O)c2cc3c(cc2OC1N1CCCC1)OCO3` (stereo not drawn), the EC50 was above 200 µM and the concentration for half-maximal inhibition (IC50) came out at 8.51 µM.
Consider `CC1(C)O[C@@H](CC/C=C/CO)[C@H](CC/C=C/CO)O1`, for which the result was inactive.
Take `COc1c(O)c2c(c(O)c1C(C)C)C(=O)C(O)=C1C(C)(C)CCC[C@@]12C`: the EC50 is above 120 µM and the IC50 was 16.2 µM.
For `COC(=O)c1ccccc1NC(=O)C(=O)NNC(=O)c1ccncc1`, the EC50 was above 275 µM and the IC50 is above 275 µM.
For `c1ccc(C2=Nc3nc4ccccc4n3C(c3ccccc3)C2)cc1` (stereo not drawn), the EC50 is above 151 µM and the IC50 is above 151 µM.
Regarding `c1ccc(CCCC2Sc3cccc4cccc(c34)S2)cc1`, the EC50 was above 11.7 µM and the IC50 is above 11.7 µM.
In the case of `O=S(=O)(O)c1cc(S(=O)(=O)O)c2c(Nc3ccnc4ccccc34)ccc(S(=O)(=O)O)c2c1`, the EC50 was above 200 µM and the half-maximal inhibitory concentration (IC50) is above 200 µM.
In the case of `Cc1cc(N(CCC#N)CCC#N)ccc1/C(N=Nc1cccc([N+](=O)[O-])c1)=N/NC(=O)c1cc(Cl)ccc1O`, the EC50 is above 200 µM and the half-inhibitory concentration (IC50) was found to be 12 µM.
Consider `Cc1ccc2c(c1)CC1(Cc3cc(C)ccc3C1=O)C2=O`, for which the EC50 was above 200 µM and the IC50 is above 200 µM.
Consider `COc1ccc(-c2c(C3=NCCCN3)nnn2-c2ccccc2)cc1`, for which the EC50 was above 759 µM and the IC50 worked out at 282 µM.
With `COc1cc(/C=C/c2cc(O)cc(C3OC(CO)C(O)C(O)C3O)c2)ccc1O` (stereo not drawn), the result was inactive.
`CC(=O)OCC1OC([n+]2c([O-])cc(=O)n3ccsc32)C(OC(C)=O)C1OC(C)=O` (stereo not drawn): the EC50 was above 589 µM and the IC50 is above 589 µM.
In the case of `N#C/C(=C(/Cc1ccc(F)cc1)NP(=O)(c1ccccc1)c1ccccc1)c1ccc(F)cc1`, the EC50 was above 21.4 µM and the IC50 is above 21.4 µM.
In the case of `O=c1c2cncnc2sc2nccn12`, the EC50 was above 200 µM and the IC50 is above 200 µM.
As for `CC(=O)Oc1ccc2c(=O)c(C(C)=O)coc2c1`, the result was inactive.
On to `CSc1cnn(CCC#N)c(=O)n1`, for which the EC50 was above 200 µM and the IC50 came out at 36.3 µM.
`CN(C)c1ccc(C2ON=C(c3ccccc3)N2C23CC4CC(CC(C4)C2)C3)cc1` (stereo not drawn): the EC50 was above 200 µM and the IC50 came out at 24 µM.
The corresponding values for `O=C1[C@@H]2CC(O)[C@@H]3C(=O)[C@@H]4CC(O)[C@H]1[C@@H]4[C@H]23` (stereo partly drawn) are above 1120 µM and above 1120 µM.
For `CC(=O)N1CCCCCC1=O`, the EC50 is above 1620 µM and the IC50 is above 1620 µM.
In the case of `Cn1c2ccccc2c(=O)c2[nH]c3ccccc3c21`, the EC50 was above 200 µM and the IC50 was 36.3 µM.
In the case of `Cc1ccc(C(=O)C(c2nc3n(c2O)C(=N)N=N3)c2nc3n(c2O)C(=N)N=N3)cc1` (stereo not drawn), the EC50 was above 12.9 µM and the IC50 is above 12.9 µM.
Consider `COc1cc(NS(=O)(=O)c2ccc(NC(=O)c3ccccc3SC(=O)CCCC[n+]3ccccc3)cc2)nc(OC)n1`, for which the EC50 is 26.9 µM and the IC50 was 60.3 µM.
With `O=c1[nH]c(=O)n(C2CC(O)C(CO)O2)cc1OCCc1ccccc1` (stereo not drawn), the EC50 was above 200 µM and the IC50 was above 200 µM.
`CC(CN(C)C)OCCn1c2c(c3ccccc31)CCCC2` (stereo not drawn): the EC50 was above 200 µM and the IC50 turned out to be 13.5 µM.
The corresponding values for `CCOC(=O)C(C)Sc1nnc(COc2ccc(Cl)cc2)n1-c1ccccc1` (stereo not drawn) are above 100 µM and 47.9 µM.
With `Cc1ccc(S(=O)(=O)N/C(=C\C=C\c2ccccc2)C(=O)C(C)(C)C)cc1`, the EC50 was 38.9 µM and the IC50 was determined as 57.5 µM.
Consider `CC(=O)OCc1cn(S(=O)(=O)c2ccc(C)cc2)cn1`, for which the EC50 is above 200 µM and the IC50 was determined as 24 µM.
`O=C(N/N=C\c1ccc([N+](=O)[O-])o1)c1ccncc1`: the EC50 was above 200 µM and the IC50 was determined as 22.9 µM.
For `CCC(=N\N=C(N)N)/C(C)=N/N=C(N)N`, the EC50 is above 23.4 µM and the IC50 is above 23.4 µM.
Take `CC(CNCCCNCCNCCCNCO)[N+](=O)[O-]` (stereo not drawn): the outcome was inactive.
For `Cc1ccc(-c2cc(O)c3nc4ccccc4n3c2)cc1`, the EC50 was above 200 µM and the IC50 was above 200 µM.
